Assays:
[1] = Uniformity of distribution of the active ingredients in the blend (10 samples, HPLC); format: physicochemical; conditions: dry powder formulation of Example 2; mean value ± RSD
Method: The uniformity of distribution of the active ingredients was evaluated by withdrawing 10 samples from different parts of the blend and evaluated by HPLC

[2] = Aerosol performance by Next Generation Impactor (NGI); format: physicochemical
Source text: After aerosolization of 3 doses from the inhaler device, the NGI apparatus was disassembled and the amounts of drug deposited in the stages were recovered by washing with a solvent mixture and then quantified by High-Performance Liquid Chromatography (HPLC).

[3] = Batch CY (Cyclomix), reference powder formulation of WO 2015/004243
[4] = Batch MF (mechano-fusion), reference powder formulation of WO 2015/004243
[5] = dry powder formulation of Example 2, DPI of WO 2004/012801
[6] = dry powder formulation of Example 2, DPI of WO 2004/012801, 2.0-5.0 micron
[7] = dry powder formulation of Example 2, DPI of WO 2004/012801, particle size <= 5.0 micron
[8] = dry powder formulation of Example 2, multidose DPI of WO 2004/012801
[9] = pMDI HFA solution formulation of WO 2011/076843 (reference Example 4)

SMILES | Delivered Dose [2, 3] | Extrafine Particle Fraction < 2 μm [2, 3] | Extrafine Particle Mass < 2 μm [2, 3] | Fine Particle Fraction [2, 3] | Fine Particle Mass [2, 3] | MMAD [2, 3] | Mid Fine Particle Fraction [2, 3] | Mid Fine Particle Mass [2, 3] | Delivered Dose [2, 4] | Extrafine Particle Fraction < 2 μm [2, 4] | Extrafine Particle Mass < 2 μm [2, 4] | Fine Particle Fraction [2, 4] | Fine Particle Mass [2, 4] | MMAD [2, 4] | Mid Fine Particle Fraction [2, 4] | Mid Fine Particle Mass [2, 4] | Extrafine Particle Fraction < 1 μm [2, 5] | Extrafine Particle Fraction < 2 μm [2, 5] | Extrafine Particle Mass < 1 μm [2, 5] | Extrafine Particle Mass < 2 μm [2, 5] | other results
CCC(=O)OCC(=O)[C@@]1(OC(=O)CC)[C@@H](C)C[C@H]2[C@@H]3CCC4=CC(=O)C=C[C@]4(C)[C@@]3(Cl)[C@@H](O)C[C@@]21C [BDP, Beclometasone dipropionate] | 90.6 µg | 53.9% | 48.8 µg | 71.2% | 64.5 µg | 1.1 μm | 17.3% | 15.7 µg | 95.7 µg | 52.3% | 50.0 µg | 69.9% | 66.9 µg | 1.1 μm | 17.6% | 16.9 µg | 13.9% | 32.1% | 12.4 µg | 28.5 µg | Uniformity of distribution [1]: 100.5 (±1.8); Fine Particle Fraction [2, 5]: 49.3%; MMAD [2, 5]: 1.6 μm; Mid Fine Particle Fraction [2, 6]: 17.1%; Mid Fine Particle Mass [2, 6]: 15.2 µg; Fine Particle Mass [2, 7]: 43.6 µg; Delivered Dose [2, 8]: 88.5 µg; Delivered Dose [2, 9]: 87.8 µg; Extrafine Particle Fraction < 2 μm [2, 9]: 40.9%; Extrafine Particle Mass < 2 μm [2, 9]: 35.9 µg; Fine Particle Fraction [2, 9]: 46.0%; Fine Particle Mass [2, 9]: 40.4 µg; MMAD [2, 9]: 1.0 μm; Mid Fine Particle Fraction [2, 9]: 5.2%; Mid Fine Particle Mass [2, 9]: 4.5 µg
C[N+]1(C)CCC(OC(=O)C(O)(c2ccccc2)C2CCCC2)C1 (stereo not drawn) [GB, Glycopyrronium bromide] | 11.6 µg | 34.9% | 4.0 µg | 57.2% | 6.6 µg | 1.8 μm | 22.3% | 2.6 µg | 11.9 µg | 33.2% | 4.0 µg | 53.8% | 6.4 µg | 1.4 μm | 20.6% | 2.5 µg | 9.8% | 26.4% | 1.1 µg | 2.9 µg | Fine Particle Fraction [2, 5]: 48.1%; MMAD [2, 5]: 1.9 μm; Mid Fine Particle Fraction [2, 6]: 21.6%; Mid Fine Particle Mass [2, 6]: 2.4 µg; Fine Particle Mass [2, 7]: 5.4 µg; Delivered Dose [2, 8]: 11.1 µg; Delivered Dose [2, 9]: 10.6 µg; Extrafine Particle Fraction < 2 μm [2, 9]: 40.2%; Extrafine Particle Mass < 2 μm [2, 9]: 4.2 µg; Fine Particle Fraction [2, 9]: 45.1%; Fine Particle Mass [2, 9]: 4.8 µg; MMAD [2, 9]: 1.0 μm; Mid Fine Particle Fraction [2, 9]: 5.0%; Mid Fine Particle Mass [2, 9]: 0.5 µg

Source: patent publication US10772896B2, “Process for preparing a dry powder formulation comprising an anticholinergic, a corticosteroid and a beta-adrenergic” (CHIESI FARMACEUTICI S.P.A., priority 2015, dated 2020)
